Experimental data: patent US6818782B2, “Enantiomeric compounds for treatment of cardiac arrhythmias and methods of use” (ARYX Therapeutics, priority 1999, dated 2004)

What was measured:
[1] = tested on: rats challenged by an arrhythmogenic combination of benzene vapors and adrenaline; assay: Anti-arrhythmic activity in anesthetized rats (benzene/adrenaline challenge: VPB and tachycardia); type: in vivo, rat; settings: for Heart rate (beats/minute) / Inhibition of tachycardia / Number of VPB / Inhibition of VPB: isolated enantiomer compared to respective racemate; for Inhibition of VPB: 4 mg/kg i.v. then 12 mg/kg/h for 2 hours; for Anti-VPB activity at the end of the washout period: time 180 min; for Protection against adrenaline-induced tachycardia (heart rate), potency and duration: administered from time 0 to time 120 minutes; for Inhibition of formation of ventricular premature beats during drug administration: whole period of drug administration (time 0 to 120 min), 4 mg/kg i.v. then 12 mg/kg/h
Description: (§1) Anti-Arrhythmic Activity in Anesthetized Rats
(§2) Male Sprague-Dawley rats with body weights of 410±30 g (Harlan Sprague Dawley Inc., Indianapolis, Ind.), were anesthetized with sodium pentobarbital (50 mg/kg i.p.—Butler Co., Columbus, Ohio). The skin from the neck area was removed and the jugular veins on both sides were cleared of connective tissue. Both jugular veins and the left carotid artery were isolated, and the latter tied up cranially with a surgical silk (ETHICON 4-0, Ethicon Inc., Australia). A plastic catheter ([…] 19ga, Vecton Dickinson, Sandy, Utah), filled with a solution containing 10% sodium heparin (Elkins-Sinn Inc., Cherry Hill, N.J.) in normal saline (100 U/ml sodium heparin), was introduced into the artery and fixed with surgical silk.
(§3) The catheter was connected to a pressure transducer (OHMEDA P23-XL, Ohmeda Medical Devices Division Inc., Madison, Wis.), filled with the same heparinized 0.9% NaCl solution, to register beat-to-beat arterial pressure. Needle electrodes were inserted s.c., and together with the pressure transducer, were joined to a GOULD TA 2000 recorder. Leads II, aVF and intraarterial blood pressure were monitored simultaneously throughout the experiments and recorded at certain intervals at 50 and 200 mm/sec paper speed.
(§4) The surgery was completed with an incision on the trachea where a short plastic tubing was placed and the animal was connected to a rodent-model ventilator (HARVARD Model 683, Harvard Apparatus, Inc., Holliston, Mass.). The animals were ventilated in a controlled way, depending on their spontaneous breathing frequency (55-75/min).
(§5) Drug administrations were carried out through i.v. catheters (TERUMO 24 GA*¾″, Terumo Medical Corp., Elkton, Md.) inserted into both jugular veins. The left side was used for drug infusions by means of a syringe pump (SAGE INSTRUMENTS, Model 341B, Orion Res. Inc., Boston, Mass.), and the right side was used for adrenaline injections. The experiments were started after at least 15 minutes of stabilization. Benzene/adrenaline challenges were performed as follows: the respirator inlet was connected to a 50-ml bubbler half-full with benzene (Fisher Scientific, Fair Lawn, N.J.) so that the inspired air was saturated with benzene vapor. The animal was ventilated with benzene vapor for two minutes. The tidal volume was typically 1 ml/100 g of animal. During the last 30 seconds of benzene ventilation, 10 μg/kg adrenaline solution (in 0.9% NaCl) was injected into the right jugular vein. […] These arrhythmias could be elicited repeatedly. After three control VTs (at −30, −20 and −10 minutes), the test compounds were injected slowly during 30 seconds at a dose of 4 mg/kg i.v., immediately followed by a slow infusion of 12 mg/kg/h for 2 hours. The flow rate during the infusion period was 1 ml/h.
(§6) There were 5 rats per test compound and each animal served as its own control. The ability of the different drugs to suppress arrhythmias was tested against repeated benzene/adrenaline challenges at 5, 15, 30, 45, 60, 90, 120 (end of drug infusion), 135, 150, 165 and 180 minutes after the i.v. bolus injection. The amplitudes of the systolic arterial pressure and diastolic arterial pressure […] with the help of a pressure-amplitude calibration curve. Heart rate, number of ventricular complexes during the occurrence of VTs and VPBs, and certain ECG parameters (PR, QRS, QT durations and RR cycle lengths in msec) were also recorded and measured manually. At each time-point, 3-5 cycles were measured and the average values were entered into EXCEL Windows 97. The average and standard deviation for the five experimental animals per compound were calculated.

[2] = tested on: anesthetized rats; assay: EKG parameters (QT, QRS, PR) in anesthetized rats; type: in vivo, rat; settings: for PR interval / QRS interval / QT interval: isolated enantiomer compared to respective racemate
Description: as §1, §2, §3, §4, §5, §6

Row | SMILES | Heart rate (beats/minute) ([1]; anesthetized rats) | Inhibition of tachycardia ([1]; anesthetized rats) | Number of VPB ([1]; anesthetized rats) | Inhibition of VPB ([1]; anesthetized rats) | Anti-VPB activity at the end of the washout period [1] | PR interval [2] | QRS interval [2] | QT interval [2] | Protection against adrenaline-induced tachycardia (heart rate), potency and duration [1] | Inhibition of formation of ventricular premature beats during drug administration [1] | Effect on PR segment of EKG (Class-IV activity), potency [2] | Effect on QT segment of EKG (Class-III properties), potency and duration [2] | Time at which anti-VPB activity is lost ([1]; infusion time 0 to 120 min) [min] | Anti-VPB activity relative to the other forms ([1]; racemate vs enantiomers, anesthetized rats)
1 | CC[C@@H](C)OC(=O)Cc1oc2ccccc2c1C(=O)c1cc(I)c(OCCN(CC)CC)c(I)c1 [Compound R-2042, (R)-sec-Butyl 2-[3-(3,5-diiodo-4-(2-diethylaminoethyloxy)benzoyl)]benzofuraneacetate] | lower | longer | lower | longer | completely inactive | shorter | no change | no change | – | – | – | – | – | –
2 | CC[C@H](C)OC(=O)Cc1oc2ccccc2c1C(=O)c1cc(I)c(OCCN(CC)CC)c(I)c1 [Compound S-2042, (S)-sec-Butyl 2-[3-(3,5-diiodo-4-(2-diethylaminoethyloxy)benzoyl)]benzofurane-acetate] | lower | longer | lower | longer | still retained part of its activity | longer | longer | longer | more potent and longer acting then R-2042 | totally inhibited the formation of ventricular premature beats | much more potent than R-2042 and the racemate R,S-2042 | the most potent and the longest acting | – | –
3 | CCN(CC)CCOc1c(I)cc(C(=O)c2c(CC(=O)OC(C)C(C)C)oc3ccccc23)cc1I (stereo not shown) [ATI-2055] | – | – | – | – | – | – | – | – | inhibits the tachycardia | – | – | – | – | –
4 | CCN(CC)CCOc1c(I)cc(C(=O)c2c(CC(=O)O[C@@H](C)C(C)C)oc3ccccc23)cc1I [Compound S-2055, (S)-(3-Methyl)-2butyl2-[3-(3,5-diiodo-4-(2-diethylaminoethyloxy)benzoyl)]benzofuraneacetate] | lower | longer | lower | longer | completely inactive | shorter | longer | no change | – | – | – | – | ~40 | –
5 | CC[C@H](C)OC(=O)Cc1oc2ccccc2c1C(=O)c1cc(I)c(OCCN(CC)CC)c(I)c1 [R,S-2042] | – | – | – | – | – | – | – | – | the least potent and shortest acting | – | – | – | – | even less active than either the R- or the S-isomer
6 | CC[C@H](C)OC(=O)Cc1oc2ccccc2c1C(=O)c1cc(I)c(OCCN(CC)CC)c(I)c1 [ATI-2042] | – | – | – | – | – | – | – | – | very good protection against this tachyarrhythmia | – | – | – | – | –
7 | CCN(CC)CCOc1c(I)cc(C(=O)c2c(CC(=O)O[C@H](C)C(C)C)oc3ccccc23)cc1I [Compound R-2055, (R)-(3-Methyl)-2butyl2-[3-(3,5-diiodo-4-(2-diethylaminoethyloxy)benzoyl)]benzofuraneacetate] | lower | longer | lower | longer | still retained part of its activity | shorter | longer | no change | longer-lasting effect than S-2055 | totally inhibited the formation of ventricular premature beats | – | – | – | –
